# Measurements as given in PubChem BioAssay (NCI).
#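 96-well plates; 48 h exposure; 5 concentrations. Endpoints by linear interpolation between flanking doses. Not reached: highest tested concentration assigned. At the GI50, growth is halved. The concentration for full growth arrest is given as TGI.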
# Assays:
# Assay in all cases: NCI tumour cell line growth inhibition, 48 h
# [1] = test system: ACHN renal
# [2] = test system: SN12C renal
# [3] = test system: DU-145 prostate
# [4] = test system: MCF7 breast
# [5] = test system: COLO 205 colon
# [6] = test system: HOP-92 NSCLC
# [7] = test system: HCT-116 colon
# [8] = test system: BT-549 breast
# [9] = test system: A549 NSCLC
# [10] = test system: HT29 colon
SMILES,GI50 [1] [µM],TGI [1] [µM],GI50 [2] [µM],TGI [2] [µM],GI50 [3] [µM],TGI [3] [µM],GI50 [4] [µM],TGI [4] [µM],GI50 [5] [µM],TGI [5] [µM],GI50 [6] [µM],TGI [6] [µM],GI50 [7] [µM],TGI [7] [µM],GI50 [8] [µM],TGI [8] [µM],GI50 [9] [µM],TGI [9] [µM],GI50 [10] [µM],TGI [10] [µM]
CC1=CC(=O)C(C(C)C)=CC1=Nc1cc(Br)c(O)c(Br)c1,11.6,30.1,5.56,18.3,3.58,11.7,4.27,17.7,19.2,35.1,11.5,40.8,3.39,11.6,1.69,5.64,4.98,> 100,4.05,16
CCOC(=O)c1c(C)n(Cc2ccccc2)c2c1cc(O)c1[nH]c(Cc3ccccc3)nc12,23,> 100,10.5,39.8,20.5,> 57.7,7.4,> 53.1,24.7,> 54.8,20.2,68.8,5.91,> 43.5,2.39,28.8,12.4,65.7,6.79,> 34.4
COc1ccc(/C=c2\sc3n(c2=O)C2C(NN=3)N(C)C(=O)N2C)cc1 (stereo not given),1.53,> 100,1.63,> 100,1.32,> 100,0.384,> 100,1.09,> 100,0.513,> 100,0.483,> 100,0.589,> 100,1.35,> 100,0.56,> 100
N#Cc1c(Br)n(C2OC(CO)C(O)C2O)c2ncnc(N)c12 (stereo not given),1.21,> 90.9,2.69,> 100,0.844,23.9,0.631,4.01,0.675,3.07,0.738,4.02,0.685,> 77.7,1.58,15,1.13,> 27,0.885,> 36.2
CCCCCCNC(=O)Oc1ccc(/C(=C(/C)Cc2ccc(OC)cc2)c2ccc(OCCCN(C)C)cc2)cc1,16.4,30.4,14.7,28.3,16.8,31.3,1.12,17.1,14.6,29.7,9.99,22.4,12.6,25.7,15.6,30.3,16.6,31.2,4.4,15.2
CCC(c1ccc(OC)cc1)C(CC)c1ccc(O)c(CN2CCN(C)CC2)c1 (stereo not given),9.99,22.9,5.7,20.9,11.3,24.1,2.42,5.09,1.73,3.42,2,9.64,3.46,14.5,13.2,26.8,8.26,22.8,2.01,9.06
O=C(CN1CCN(c2cc3c(cc2F)c(=O)c(C(=O)O)cn3C2CC2)CC1)Nc1nc(-c2ccc(Cl)cc2)cs1,3.05,> 100,3.69,> 100,4.03,28.4,3.06,36.1,4.82,> 100,2.73,7.91,3.37,> 100,3.85,60.3,3.75,> 100,3.43,29.4
Cc1cn(C2C=CC(CO)O2)c(=O)[nH]c1=O (stereo not given),–,> 1000,–,> 1000,–,> 1000,–,> 1000,–,> 1000,–,> 1000,–,> 1000,–,> 1000,–,> 1000,–,> 1000
COc1ccc2c(c1)CC[C@@H]1[C@@H]2CC[C@]2(C)[C@@H](NC(=O)/C=C/c3ccc(O)c(O)c3)CC[C@@H]12,3.89,14.8,2.61,9.3,12.6,30.4,5.24,> 100,14,46.8,2.49,11.6,2.02,10.4,5.56,20.3,4.58,17.6,4.74,> 100
FC(F)(F)c1ccc(-c2cnc(-n3cc(COCCN4CCCCC4)nn3)nc2NC2CCCCCC2)cc1,4.53,8.39,3.98,7.56,4.25,7.94,3.21,7.4,3.86,8.57,0.523,3.37,3.32,7,4.33,8.55,4.16,8.18,1.46,5.08
COc1ccc(S(=O)(=O)NC2=NCCN2C(=S)SN2CCn3c2nsc3=S)cc1,12.9,26,18.2,40,13.5,31.9,12.4,27.2,11,27.4,16.9,35.4,14.4,27.9,10.4,23.5,23.4,79.4,32.4,> 100
O=[N+]([O-])c1ccc(C2CC(c3ccccc3Cl)=Nc3ccccc3S2=O)cc1 (stereo not given),–,4.26,–,5.2,–,34.1,–,7.92,–,22.1,–,31.5,–,3.49,–,31.1,–,38,–,5.73
Cc1ccc(C(NC(=O)c2ccccc2)c2ccc3cccnc3c2O)cc1 (stereo not given),0.285,15.4,0.451,48.7,0.442,41.9,0.365,> 47.3,0.44,18.5,0.145,11.7,0.303,13.8,0.524,> 40.6,0.379,12.7,0.536,19.4
Clc1ccc(-c2nnc(-c3cccc4ccccc34)o2)cc1Cl,–,> 100,–,> 100,–,> 100,–,> 100,–,> 100,–,> 100,–,> 100,–,> 100,–,> 100,–,> 100
CCN(Cc1ccc(F)cc1)c1ccc(CO)c(C)c1,12.5,39.4,19.3,> 82.6,21.1,59.2,15.1,> 52.2,5.7,19,8.45,27,2.02,17.6,5.15,24.5,17.1,69.4,20.7,55.8
C=C1C(=O)O[C@H]2[C@H]1CC/C(COC(=O)CCSCCC(=O)OC/C1=C/CC[C@@]3(C)O[C@H]3[C@H]3OC(=O)C(=C)[C@@H]3CC1)=C\CC[C@@]1(C)O[C@@H]21,0.658,1.89,1.35,3.62,1.36,2.71,0.418,1.86,0.558,1.97,1.26,2.7,0.206,0.609,1.29,2.66,2.54,7.56,0.496,1.73
COc1cc(OC)c2nccc(NCCCN(C)C)c2c1[N+](=O)[O-],–,> 100,–,> 100,–,> 100,–,> 100,–,> 100,–,> 100,–,> 100,–,> 100,–,> 100,–,> 100
S=C(Nc1ccc(N=Nc2ccccc2)cc1)SCc1ccccc1,–,31.3,–,29.2,–,29.6,–,64.6,–,42.1,–,30.4,–,31.9,–,40.3,–,35.8,–,52.1
Cc1cc2cc3ccc(N(C)C)cc3nc2cc1N,0.423,5.75,0.411,4.54,0.437,2.45,0.35,11.2,0.389,2.01,1.14,4.69,0.279,1.45,1.64,3.82,0.431,2.61,0.327,1.76
CC(C)N1CCN(Cc2ccc3c(NNC(=O)c4ccccc4)nc4cc(F)ccc4n23)CC1,0.0902,12,0.529,12.8,0.629,13.3,0.341,1.48,0.273,3.47,0.678,15.3,0.238,1.45,0.629,12.1,0.465,8.47,0.673,7.46
COc1cccc(-c2ccc3c(c2)C2CCN(Cc4ccccc4)C3C2)c1 (stereo not given),11.9,38.1,11.2,30.3,16.4,43.9,4.34,19.5,10,27.8,3.72,20.2,4.8,23.6,6.12,21.1,7.72,31.8,3.24,12.2
CC(=O)N1N=C(c2ccc(Nc3ccnc4cc(Cl)ccc34)cc2)CC1c1ccc(Cl)cc1 (stereo not given),3.96,> 100,30.7,> 100,> 100,> 100,4.04,> 100,5.93,> 100,> 100,> 100,38.8,> 100,5.4,> 100,8.81,> 100,5.4,> 100
CCOc1cc(Br)c(C(C)NC(=O)c2cccc(OC)c2)cc1OCC (stereo not given),21.1,> 100,25.2,> 100,26.4,> 100,5.38,> 100,8.28,37.9,8.97,> 83.5,4.39,> 100,13.2,> 84.1,10.8,> 100,5.01,> 100
O=C(O)c1cn(C2CC2)c2cc(N3CCN(C(=O)Nc4nc(-c5ccccc5)cs4)CC3)c(F)cc2c1=O,0.894,7.54,0.774,> 100,1.05,15.8,1.72,> 100,2.84,9.63,1.13,5.99,0.647,> 100,0.473,10.4,2.15,> 100,0.636,4.67
